# Experimental data taken from patent US20120065063A1, “3-Aryl-4-(2,6-dimethylbenzylidene)isoxazol-5(4H)-ones as Fungicides” (Bayer CropScience AG, priority 2010, published 2012).
# How the values were obtained:
# [1] = test system: Blumeria graminis f.sp. tritici; assay: Blumeria test (wheat)/protective; assay type: in vivo; details: protective, 1000 ppm, evaluation 7 days after inoculation
# Description: Blumeria Test (Wheat)/Protective [table] To produce an appropriate active compound formulation, I part by weight of active compound is mixed with the specified amounts of solvent and emulsifier, and the concentrate is diluted with water to the desired concentration. To test for protective activity, young plants are sprayed with the preparation of active compound at the stated application rate. After the spray coating has dried on, the plants are dusted with spores of Blumeria graminis f.sp. tritici.
# Plasmopara viticola = assay: Plasmopara test (grapevine)/protective; assay type: in vivo; details: protective, 100 ppm, evaluation 6 days after inoculation
# Description: Plasmopara Test (Grapevine)/Protective [table] To produce an appropriate active compound formulation, I part by weight of active compound is mixed with the specified amounts of solvent and emulsifier, and the concentrate is diluted with water to the desired concentration. To test for protective efficacy, young plants are sprayed with the active compound formulation at the stated application rate. After the spray coating has dried on, the plants are inoculated with an aqueous spore suspension of Plasmopara viticola and then remain in an incubation cabin at about 20° C. and 100% relative atmospheric humidity for 1 day. The plants are then placed in a greenhouse at about 21° C. and about 90% atmospheric humidity for 4 days. The plants are then moistened and placed in an incubation cabin for 1 day.
# Venturia inaequalis = assay: Venturia test (apple)/protective; assay type: in vivo; details: protective, 100 ppm, evaluation 10 days after inoculation
# Description: Venturia Test (Apple)/Protective [table] To produce an appropriate active compound formulation, 1 part by weight of active compound is mixed with the specified amounts of solvent and emulsifier, and the concentrate is diluted with water to the desired concentration. To test for protective efficacy, young plants are sprayed with the active compound formulation at the stated application rate. After the spray coating has dried on, the plants are inoculated with an aqueous conidia suspension of the apple scab pathogen Venturia inaequalis and then remain in an incubation cabin at about 20° C. and 100% relative atmospheric humidity for 1 day. The plants are then placed in the greenhouse at about 21° C. and a relative atmospheric humidity of about 90%.
# Alternaria solani = assay: Alternaria test (tomato)/protective; assay type: in vivo; details: protective, 500 ppm, evaluation 7 days after inoculation
# Description: Alternaria Test (Tomato)/Protective [table] To produce an appropriate active compound formulation, 1 part by weight of active compound is mixed with the specified amounts of solvent and emulsifier, and the concentrate is diluted with water to the desired concentration. To test for protective activity, young tomato plants are sprayed with the preparation of active compound at the stated application rate. 1 day after the treatment, the plants are inoculated with a spore suspension of Alternaria solani and then remain at 100% relative humidity and 20° C. for 24 h. The plants then remain at 96% relative atmospheric humidity and a temperature of 20° C.
# Sphaerotheca fuliginea = assay: Sphaerotheca test (cucumber)/protective; assay type: in vivo; details: protective, 500 ppm, evaluation 7 days after inoculation
# Description: Sphaerotheca Test (Cucumber)/Protective [table] To produce an appropriate active compound formulation, 1 part by weight of active compound is mixed with the specified amounts of solvent and emulsifier, and the concentrate is diluted with water to the desired concentration. To test for protective activity, young cucumber plants are sprayed with the preparation of active compound at the stated application rate. 1 day after the treatment, the plants are inoculated with a spore suspension of Sphaerotheca fuliginea. The plants are then placed in a greenhouse at 70% relative atmospheric humidity and a temperature of 23° C.
# Leptosphaeria nodorum = assay: In vitro test for determining the ED50 value with Leptosphaeria nodorum; assay type: cell-based; details: 50% inhibition of fungal growth, microtitre plates, 6 days, 20° C.
# Description: In Vitro Test for Determining the ED50 Value with Leptosphaeria nodorum The cavities of 96-well microtitre plates are filled with 1.5 μl of a solution of the test compounds in DMSO. 150 μl of a glucose/peptone medium comprising the spores of the test fungus in a suitable concentration are introduced into each cavity. The test compounds in the microtitre cavities are used in concentrations of 20, 6, 2 and 0.6 ppm. The absorbance is determined photometrically at 620 nm. The microtitre plates are left at 20° C. and 85% relative atmospheric humidity for 6 days. Once the incubation time has passed, the growth of the test organisms is determined photometrically at a wavelength of 620 nm. The difference in absorbances before and after the incubation corresponds to the growth of the test fungi. Based on the difference of the absorbances at the various test concentrations and the difference of the absorbances of the untreated control, a dose/activity curve is calculated. The concentration required to inhibit fungal growth by 50% is determined and reported as ED50 value (=Effective Dose which causes 50% inhibition of growth) in ppm (=mg/l).
# [2] = log P by HPLC on reversed-phase columns (EEC directive 79/831 Annex V.A8); assay type: physicochemical; details: acidic range pH 2.7, 0.1% aqueous formic acid/acetonitrile
# Description: The log P values were measured according to EEC directive 79/831 Annex V.A8 by HPLC (High Performance Liquid Chromatography) on reversed-phase columns (C 18), using the method below:
# The determination was carried out in the acidic range at pH 2.7 using the mobile phases 0.1% aqueous formic acid and acetonitrile; linear gradient from 10% acetonitrile to 95% acetonitrile.
# Meloidogyne incognita = assay: Meloidogyne test (spray treatment); assay type: in vivo; details: lettuce, 20 ppm
# Description: Meloidogyne Test (Spray Treatment) [table] To prepare a suitable active compound preparation, 1 part by weight of active compound is mixed with the stated amount of solvent and the concentrate is diluted with water to the desired concentration. Containers are filled with sand, solution of active compound, Meloidogyne incognita egg/larvae suspension and lettuce seeds. The lettuce seeds germinate and the plants develop. On the roots, galls are formed. After the desired period of time, the nematicidal action is determined in % by the gall formation. 100% means that no galls have been found; 0% means that the number of galls on the treated plants corresponds to that of the untreated control.
# Spodoptera frugiperda = Spodoptera frugiperda test (spray treatment); assay type: in vivo; details: maize leaf discs, 500 g/ha
# Description: Spodoptera frugiperda Test (Spray Treatment) [table] To produce a suitable preparation of active compound, 1 part by weight of active compound is mixed with the stated amounts of solvents and emulsifier, and the concentrate is diluted with emulsifier-containing water to the desired concentration. Discs of maize leaves (Zea mays) are sprayed with an active compound preparation of the desired concentration and, after drying, populated with caterpillars of the armyworm (Spodoptera frugiperda). After the desired period of time, the effect in % is determined. 100% means that all caterpillars have been killed; 0% means that none of the caterpillars have been killed.
log P [2],Compound,efficacy [1] [%],efficacy (Plasmopara viticola) [%],efficacy (Venturia inaequalis) [%],efficacy (Alternaria solani) [%],efficacy (Sphaerotheca fuliginea) [%],ED50 (Leptosphaeria nodorum) [ppm],activity (nematicidal action by gall formation) (Meloidogyne incognita) [%],activity (caterpillars killed) (Spodoptera frugiperda) [%]
–,O=C1ON=C(c2ccccc2)C1=Cc1ccc(Cl)cc1 [Compound A-2],29,38,16,0,20,–,–,–
–,CC1=NOC(=O)/C1=C\c1ccco1 [Compound A-8],29,28,6,0,0,–,–,–
–,CC1=NOC(=O)C1=Cc1ccc(C)cc1 [Compound A-4],43,35,9,0,30,14,–,–
4.50,Cc1cc(C)c(C=C2C(=O)ON=C2c2ccc(Cl)cc2)c(C)c1 [Compound I-70],–,–,–,–,–,–,≥ 80,–
–,COc1ccc(C=C2C(=O)ON=C2C)cc1 [Compound A-5],29,40,59,0,40,–,–,–
–,CC1=NOC(=O)C1=Cc1ccc(N(C)C)cc1 [Compound A-7],0,45,0,0,10,–,–,–
–,CC1=NOC(=O)C1=Cc1ccccc1 [Compound A-3],57,55,48,0,30,–,–,–
–,O=C1ON=C(c2ccccc2)C1=Cc1ccccc1Cl [Compound A-6],29,38,14,0,50,–,–,–
4.09,Cc1cc(C)c(C=C2C(=O)ON=C2c2c(F)cccc2F)c(C)c1 [Compound I-24],–,–,–,–,–,–,–,≥ 80
